Laboratory results reported in article PMC7391726, “Fatty acid mimetic PBI-4547 restores metabolic homeostasis via GPR84 in mice with non-alcoholic fatty liver disease” (Scientific Reports, 2020).
pKi: −log10 of the molar value.

Tests used:
PPARδ [1] = target: T1, PPARδ (Homo sapiens, UniProt Q03181); experiment: Cell-based GAL4 transactivation assay in HEK293 cells, PPARδ LBD; conditions: compared to the control agonist GW0742
T1 construct: PPARδ (S139–Y440); expressed in transfected cells; host or cells: HEK293
T1 sequence (Q03181 139-441 limits assumed): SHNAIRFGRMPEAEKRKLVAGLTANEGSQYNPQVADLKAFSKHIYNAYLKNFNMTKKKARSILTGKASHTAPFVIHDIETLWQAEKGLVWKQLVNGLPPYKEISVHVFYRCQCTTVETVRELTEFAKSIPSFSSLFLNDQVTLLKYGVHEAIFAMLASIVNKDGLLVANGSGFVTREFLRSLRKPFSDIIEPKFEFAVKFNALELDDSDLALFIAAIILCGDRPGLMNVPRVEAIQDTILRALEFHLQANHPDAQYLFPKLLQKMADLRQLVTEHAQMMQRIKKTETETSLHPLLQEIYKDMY
Source text: To determine the transcriptional activity of PBI-4547, a cell-based GAL4 transactivation assay in HEK293 cells transfected with either PPARα, PPARδ, or PPARγ LBD was used. […] However, PBI-4547 only partially activated PPARγ transcriptional activity, with a relative maximal efficacy of 38% of the control agonist rosiglitazone.
Generation of the Gαi2, Gαq, and GPR40/β-arrestin-2 BRET biosensors have been described previously. A plasmid encoding the human GPR120-L (long isoform) cDNA was obtained from R&D Systems. GPR120-S (short isoform) was generated by replacing the BglII-BsgI fragment from GPR120-L by a gBlock gene fragment (Integrated DNA Technologies, Coralville, IA) lacking the DNA sequence corresponding to the extra 16 amino acids found in the third intracellular loop of the long form. The GPR120-GFP10 construct was generated by inserting PCR-amplified GPR120-S (without its stop codon) in place of GPR40 in the GPR40-GFP10 plasmid. […]
HEK293 cells were co-transfected with pGL4.35[luc2P/9XGAL4UAS/Hygro] and GAL4-PPAR-Rluc plasmids, and after 24 h of incubation were treated with compounds for 24 h. Luciferase activity was determined with the Dual Glo luciferase assay (Promega). Firefly luminescence was normalized to the constitutively expressed Renilla luminescence, and results expressed as fold induction of vehicle control.

BDL rat = experiment: Bile duct ligation (BDL)-induced liver fibrosis; format: in vivo
Source text: Since fibrosis contributes directly to the progression from NAFLD to NASH, we next evaluated the effect of PBI-4547 pro-fibrotic gene expression. […] Pro-inflammatory genes were not modulated by treatment with PBI-4547. […] As liver fibrosis was relatively mild in HFD-fed mice, we performed separate studies to evaluate the antifibrotic effect of PBI-4547, in rodent models of carbon tetrachloride (CCl4)- and bile duct ligation (BDL)-induced liver fibrosis.

PPARδ [2] = target: T2, PPARδ (Homo sapiens, UniProt Q03181); experiment: LanthaScreen TR-FRET competitive binding assay, PPARδ LBD; conditions: Cheng-Prusoff; read-out: Ki inhibition constant, PPARδ LBD
T2 construct: glutathione S-transferase (GST)-tagged human PPAR-LBD; purchased Fisher Scientific
T2 sequence (Q03181 211-439 limits assumed): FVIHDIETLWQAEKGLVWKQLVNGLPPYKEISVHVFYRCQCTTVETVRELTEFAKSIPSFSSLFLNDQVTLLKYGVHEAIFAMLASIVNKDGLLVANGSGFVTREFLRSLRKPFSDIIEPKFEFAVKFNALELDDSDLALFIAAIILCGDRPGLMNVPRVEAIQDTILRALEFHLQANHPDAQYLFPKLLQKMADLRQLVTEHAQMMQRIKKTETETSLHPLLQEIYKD
Source text: The peroxisome proliferator-activated receptors (PPARs), PPARα, PPARδ, and PPARγ are ligand-dependent transcription factors regulated by FAs, including MCFAs, which control expression of several key metabolism-associated genes. We thus characterized the binding and transcriptional activity of PBI-4547 to these receptors. A LanthaScreen TR-FRET competitive binding assay was used to determine the binding affinity of PBI-4547 in comparison to the full control agonists GW7647 (PPARα), GW0742 (PPARδ), and rosiglitazone (PPARγ).
The LanthaScreen time-resolved fluorescence resonance energy transfer (TR-FRET) PPARα, PPARδ and PPARγ competitive binding assay (Fisher Scientific) was performed according to the manufacturer’s protocol. […] The FRET signal was measured using an Infinite M1000 microplate reader by excitation at 332 nm and emission at 520 nm for fluorescein and 490 nm for terbium. Competitive ligand binding to PPAR is detected by a test compound’s ability to displace the Fluormone pan-PPAR Green from the LBD, which results in a decrease of the 520 nm/490 nm TR-FRET ratio. The inhibition constant (Ki) of the competitor ligand was calculated by applying the Cheng-Prusoff equation.

ob/ob mice = experiment: ob/ob leptin-deficient genetic mouse model of metabolic syndrome; format: in vivo
Source text: We next sought to confirm our above findings obtained from the diet-induced model of obesity by using the ob/ob leptin-deficient genetic mouse model of metabolic syndrome. […] Additionally, the mRNA expression profiles of glucose- and FA-related genes in liver (Fig. S4D,E) and WAT (Fig. S5) also differed between pioglitazone- and PBI-4547-treated mice.

PPARδ transcriptional activity (PPARδ [1]): very weak | pKi (PPARδ [2]): 5.50
Compound: CCCCCc1cc(CCCCC)cc(CC(=O)[O-])c1.[Na+] [PBI-4547, 2-[3,5-dipentylphenyl]acetate sodium salt]
liver collagen deposition (BDL rat): significantly decreased | bodyweight (ob/ob mice): significantly reduced | prevention of clinical manifestations of fatty liver disease (liver histology) (ob/ob mice): more effective than pioglitazone
